In patent publication US8946223B2, “Substituted hydroxamic acids and uses thereof” (Millennium Pharmaceuticals, Inc., priority 2010, dated 2015):

target: T1, purified human HDAC6 (Homo sapiens, UniProt Q9UBN7); assay: HDAC6 enzyme assay; type: biochemical; settings: bin: less than 100 nM
T1 construct: purchased BPS Bioscience 5006
T1 sequence (Q9UBN7 1-1215): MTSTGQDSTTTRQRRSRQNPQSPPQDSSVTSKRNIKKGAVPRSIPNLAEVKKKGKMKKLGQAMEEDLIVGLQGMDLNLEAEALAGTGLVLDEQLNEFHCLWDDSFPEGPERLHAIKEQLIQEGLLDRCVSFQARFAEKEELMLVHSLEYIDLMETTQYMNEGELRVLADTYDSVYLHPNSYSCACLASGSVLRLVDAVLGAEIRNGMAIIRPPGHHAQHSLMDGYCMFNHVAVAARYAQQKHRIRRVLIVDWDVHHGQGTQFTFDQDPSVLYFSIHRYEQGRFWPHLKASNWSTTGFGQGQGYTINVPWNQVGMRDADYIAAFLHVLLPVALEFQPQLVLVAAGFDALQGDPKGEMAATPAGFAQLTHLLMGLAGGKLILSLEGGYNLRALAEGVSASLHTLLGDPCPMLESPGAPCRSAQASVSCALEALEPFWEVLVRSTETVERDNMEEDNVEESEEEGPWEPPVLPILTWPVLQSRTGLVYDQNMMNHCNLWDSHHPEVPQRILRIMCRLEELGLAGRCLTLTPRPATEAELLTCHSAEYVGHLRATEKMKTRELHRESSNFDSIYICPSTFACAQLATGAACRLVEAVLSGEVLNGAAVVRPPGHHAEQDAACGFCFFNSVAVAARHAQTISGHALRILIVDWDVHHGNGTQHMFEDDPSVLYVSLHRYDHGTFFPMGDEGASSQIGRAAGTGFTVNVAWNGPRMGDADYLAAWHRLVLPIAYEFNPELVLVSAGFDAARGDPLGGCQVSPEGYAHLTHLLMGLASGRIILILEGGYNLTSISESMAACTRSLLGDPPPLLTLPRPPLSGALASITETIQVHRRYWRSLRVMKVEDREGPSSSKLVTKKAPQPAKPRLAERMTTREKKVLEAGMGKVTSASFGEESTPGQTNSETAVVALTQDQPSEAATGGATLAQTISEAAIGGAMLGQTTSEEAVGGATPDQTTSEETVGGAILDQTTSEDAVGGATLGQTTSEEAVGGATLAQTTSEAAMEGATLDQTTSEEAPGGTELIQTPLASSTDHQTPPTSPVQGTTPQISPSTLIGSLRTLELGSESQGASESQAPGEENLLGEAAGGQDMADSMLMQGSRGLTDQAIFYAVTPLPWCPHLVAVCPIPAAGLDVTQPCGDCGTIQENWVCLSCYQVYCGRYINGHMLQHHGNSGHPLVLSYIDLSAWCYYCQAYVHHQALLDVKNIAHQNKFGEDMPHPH
Description: To measure the inhibition of HDAC6 activity, purified human HDAC6 (BPS Bioscience; Cat. No. 5006) is incubated with substrate Ac-Arg-Gly-Lys(Ac)-AMC peptide (Bachem Biosciences; Cat. No. I-1925) for 1 hour at 30° C. in the presence of test compounds or vehicle DMSO control. The reaction is stopped with the HDAC inhibitor trichostatin A (Sigma; Cat. No. T8552) and the amount of Arg-Gly-Lys-AMC generated is quantitated by digestion with trypsin (Sigma; Cat. No. T1426) and subsequent measurement of the amount of AMC released using a fluorescent plate reader (Pherastar; BMG Technologies) set at Ex 340 nm and Em 460 nm. Concentration response curves are generated by calculating the fluorescence increase in test compound-treated samples relative to DMSO-treated controls, and enzyme inhibition (IC50) values are determined from those curves.

IC50 [nM] | SMILES
< 100 | Cn1c(C(=O)N2CCn3cc(C(=O)NO)cc3C2)cc(Cl)c1Cl [Compound I-91, 2-[(4,5-dichloro-1-methyl-1H-pyrrol-2-yl)carbonyl]-N-hydroxy-1,2,3,4-tetrahydropyrrolo[1,2-a]pyrazine-7-carboxamide]
< 100 | Cc1cc(C(=O)N2CCn3cc(C(=O)NO)cc3C2)c(C)[nH]1 [Compound I-94, 2-[(2,5-dimethyl-1H-pyrrol-3-yl)carbonyl]-N-hydroxy-1,2,3,4-tetrahydropyrrolo[1,2-a]pyrazine-7-carboxamide]
< 100 | Cc1c(C(=O)N2CCn3cc(C(=O)NO)cc3C2)cnn1-c1ccccc1 [Compound I-99, N-hydroxy-2-[(5-methyl-1-phenyl-1H-pyrazol-4-yl)carbonyl]-1,2,3,4-tetrahydropyrrolo[1,2-a]pyrazine-7-carboxamide]
< 100 | O=C(NO)c1cn2c(n1)CN(C(=O)Nc1ccccc1)CC2 [Compound I-116, N2-hydroxy-N7-phenyl-5,6-dihydroimidazo[1,2-a]pyrazine-2,7(8H)-dicarboxamide]
< 100 | Cc1onc(-c2ccccc2)c1CN1CCn2cc(C(=O)NO)cc2C1=O [Compound I-197, N-hydroxy-2-[(5-methyl-3-phenylisoxazol-4-yl)methyl]-1-oxo-1,2,3,4-tetrahydropyrrolo[1,2-a]pyrazine-7-carboxamide]
< 100 | O=C(NO)c1cc2n(c1)CCN(Cc1ccc(C(F)(F)F)cc1)C2=O [Compound I-240, N-hydroxy-1-oxo-2-[4-(trifluoromethl)benzyl]-1,2,3,4-tetrahydropyrrolo[1,2-a]pyrazine-7-carboxamide]

same assay, conditions: bins: greater than 1 μM and less than 10 μM; greater than 10 μM

IC50 [nM] | SMILES
1000 to 10000 | Cc1nc(CC(=O)N2CCn3nc(C(=O)NO)cc3C2)cs1 [Compound I-90, N-hydroxy-5-[(2-methyl-1,3-thiazol-4-yl)acetyl]-4,5,6,7-tetrahydropyrazolo[1,5-a]pyrazine-2-carboxamide]
1000 to 10000 | CCc1cc(C(=O)N2CCCn3cc(C(=O)NO)cc3C2)n(C)n1 [Compound I-95, 2-[(3-ethyl-1-methyl-1H-pyrazol-5-yl)carbonyl]-N-hydroxy-2,3,4,5-tetrahydro-1H-pyrrolo[1,2-a][1,4]diazepine-8-carboxamide]
1000 to 10000 | O=C(NO)c1cc2n(c1)CCCN(C(=O)c1csc3ccccc13)C2 [Compound I-96, 2-(1-benzothien-3-ylcarbonyl)-N-hydroxy-2,3,4,5-tetrahydro-1H-pyrrolo[1,2-a][1,4]diazepine-8-carboxamide]
1000 to 10000 | O=C(NO)c1cc2n(n1)CCCN(C(=O)c1cc3ccccc3s1)C2 [Compound I-98, 5-(1-benzothien-2-ylcarbonyl)-N-hydroxy-5,6,7,8-tetrahydro-4H-pyrazolo[1,5-a][1,4]diazepine-2-carboxamide]
1000 to 10000 | Cn1c(C(=O)N2CCCn3nc(C(=O)NO)cc3C2)cc2ccccc21 [Compound I-105, N-hydroxy-5-[(1-methyl-1H-indol-2-yl)carbonyl]-5,6,7,8-tetrahydro-4H-pyrazolo[1,5-a][1,4]diazepine-2-carboxamide]
1000 to 10000 | O=C(NO)c1cc2n(n1)CCN(C(=O)CCc1ccccc1)C2 [Compound I-106, N-hydroxy-5-(3-phenylpropanoyl)-4,5,6,7-tetrahydropyrazolo[1,5-a]pyrazine-2-carboxamide]
1000 to 10000 | Cc1c(C(=O)N2CCCn3nc(C(=O)NO)cc3C2)oc2ccccc12 [Compound I-108, N-hydroxy-5-[(3-methyl-1-benzofuran-2-yl)carbonyl]-5,6,7,8-tetrahydro-4H-pyrazolo[1,5-a][1,4]diazepine-2-carboxamide]
1000 to 10000 | O=C(NO)c1cc2n(n1)CCN(CCCn1cccc1)C2=O [Compound I-109, N-hydroxy-4-oxo-5-[3-(1H-pyrrol-1-yl)propyl]-4,5,6,7-tetrahydropyrazolo[1,5-a]pyrazine-2-carboxamide]
1000 to 10000 | CCc1cccc(CC)c1NC(=O)N1CCn2cc(C(=O)NO)nc2C1 [Compound I-115, N7-(2,6-diethylphenyl)-N2-hydroxy-5,6-dihydroimidazo[1,2-a]pyrazine-2,7(8H)-dicarboxamide]
1000 to 10000 | CCC(C)NC(=O)N1CCn2cc(C(=O)NO)nc2C1 (stereo not drawn) [Compound I-118, N7-(sec-butyl)-N2-hydroxy-5,6-dihydroimidazo[1,2-a]pyrazine-2,7(8H)-dicarboxamide]
1000 to 10000 | Cc1onc(-c2ccccc2)c1NC(=O)N1CCn2cc(C(=O)NO)nc2C1 [Compound I-122, N2-hydroxy-N7-(5-methyl-3-phenylisoxazol-4-yl)-5,6-dihydroimidazo[1,2-a]pyrazine-2,7(8H)-dicarboxamide]
1000 to 10000 | O=C(NO)c1cn2c(n1)CN(C(=O)NCc1ccccc1)CC2 [Compound I-123, N7-benzyl-N2-hydroxy-5,6-dihydroimidazo[1,2-a]pyrazine-2,7(8H)-dicarboxamide]
